Data as given in PMC8780828 (Viruses, 2021).

Assays:
[1] = test system: NL4-3∆Env-NanoLuc/SARS-CoV-2 mutant pseudovirus E484K; format: cell-based
[2] = test system: NL4-3∆Env-NanoLuc/SARS-CoV-2 mutant pseudovirus N501Y/D614G; format: cell-based
[3] = test system: NL4-3∆Env-NanoLuc/SARS-CoV-2 mutant pseudovirus D614G/P681R/D950N; format: cell-based
[4] = molecular target: SARS-CoV-2 spike (active trimer) His-tag (Severe acute respiratory syndrome coronavirus 2, UniProt P0DTC2, K986P/R682S/R685S/V987P); format: binding
[5] = test system: NL4-3∆Env-NanoLuc/SARS-CoV-2 mutant pseudovirus N501Y; format: cell-based
[6] = test system: NL4-3∆Env-NanoLuc/SARS-CoV-2 mutant pseudovirus ∆69–70; format: cell-based
[7] = test system: NL4-3∆Env-NanoLuc/SARS-CoV-2 mutant pseudovirus N501Y/∆69–70/P681H; format: cell-based
[8] = test system: NL4-3∆Env-NanoLuc/SARS-CoV-2 mutant pseudovirus P681H; format: cell-based
[9] = test system: NL4-3∆Env-NanoLuc/SARS-CoV-2 mutant pseudovirus N501Y/∆69–70; format: cell-based
[10] = test system: NL4-3∆Env-NanoLuc/SARS-CoV-2 mutant pseudovirus D950N; format: cell-based
[11] = test system: NL4-3∆Env-NanoLuc/SARS-CoV-2 mutant pseudovirus E484K/D614G; format: cell-based
[12] = test system: NL4-3∆Env-NanoLuc/SARS-CoV-2 mutant pseudovirus D614G/D950N; format: cell-based
[13] = test system: NL4-3∆Env-NanoLuc/SARS-CoV-2 mutant pseudovirus E484K/N501Y; format: cell-based
[14] = test system: NL4-3∆Env-NanoLuc/SARS-CoV-2 mutant pseudovirus D614G; format: cell-based
[15] = test system: NL4-3∆Env-NanoLuc/SARS-CoV-2 mutant pseudovirus E484K/N501Y/D614G; format: cell-based
[16] = test system: NL4-3∆Env-NanoLuc/SARS-CoV-2 mutant pseudovirus D614G/P681R; format: cell-based

Compound	IC50 [1]	IC50 [2]	IC50 [3]	ka [4]	kd [4]	IC50 [5]	IC50 [6]	IC50 [7]	IC50 [8]	IC50 [9]	IC50 [10]	IC50 [11]	IC50 [12]	IC50 [13]	IC50 [14]	IC50 [15]	IC50 [16]
O=C(O)c1cc(-c2ccc(/C=C3\SC(=S)N(CCc4ccccc4)C3=O)o2)ccc1Cl [NBCoV1]	42 ± 0.7 nM	57 ± 2 nM	58 ± 7 nM	1040 M⁻¹ s⁻¹	0.00162 s⁻¹	52.5 ± 0.2 nM	48 ± 3 nM	57 ± 0.5 nM	35 ± 0.5 nM	46 ± 0.5 nM	47.7 ± 15 nM	33 ± 0.5 nM	33 ± 10 nM	32 ± 0.5 nM	56 ± 0.6 nM	45 ± 2 nM	49 ± 13 nM
O=C(O)c1cccc(-c2ccc(/C=C3\SC(=S)N(CCc4ccccc4)C3=O)o2)c1 [NBCoV2]	45 ± 0.2 nM	59 ± 13 nM	53 ± 12 nM	872 M⁻¹ s⁻¹	0.00468 s⁻¹	49 ± 0.5 nM	55 ± 0.5 nM	79 ± 14 nM	51 ± 0.3 nM	66 ± 1 nM	88.7 ± 6 nM	35 ± 0.2 nM	26 ± 2 nM	36 ± 0.4 nM	61 ± 0.3 nM	43 ± 0.5 nM	65 ± 18 nM
O=C(O)c1cc(-c2ccc(/C=C3\SC(=S)N(CCc4ccccc4)C3=O)o2)ccc1F [NBCoV3]	80 ± 10.6 nM	104 ± 1 nM	–	–	–	44.5 ± 0.5 nM	69 ± 7 nM	232 ± 17 nM	55 ± 0.3 nM	94 ± 16 nM	–	44 ± 0.8 nM	–	42 ± 1 nM	145 ± 28 nM	101 ± 2 nM	–
Cc1ccc(-c2ccc(/C=C3\SC(=S)N(CCc4ccccc4)C3=O)o2)cc1C(=O)O [NBCoV4]	45 ± 0.4 nM	77 ± 29 nM	239 ± 7 nM	–	–	51 ± 0.4 nM	53 ± 0.5 nM	158 ± 31 nM	44 ± 0.4 nM	53 ± 11 nM	207 ± 29 nM	44 ± 3 nM	77.5 ± 16.5 nM	51 ± 5 nM	58 ± 0.4 nM	43 ± 2.5 nM	148 ± 30 nM
Cc1c(C(=O)O)cccc1-c1ccc(/C=C2\SC(=S)N(CCc3ccccc3)C2=O)o1 [NBCoV5]	> 2000 nM	> 2000 nM	> 2000 nM	–	–	> 2000 nM	> 2000 nM	> 2000 nM	1720 ± 215 nM	> 2000 nM	> 2000 nM	1850 ± 124 nM	> 2000 nM	> 2000 nM	1730 ± 62.5 nM	> 2000 nM	> 2000 nM
